The assay has as its system ADP-induced aggregation of human platelets. The class given is cell-based. Particulars: 0.5 mcg/mL final, human platelet rich plasma.
The mark [1] stands for this setting: vs. ADP, Table 1, read-out: Inhibition of Human Platelet Aggregation of Formula I Compounds (IC50) vs. ADP.
The mark [2] stands for this setting: vs ADP, Table 2, read-out: Inhibition of Human Platelet Aggregation of Formula II Compounds (IC50) Vs ADP.

Converted amounts (≈) assume the structure as drawn. Read-outs that look alike come from different tables or passages of the source.

Description: The aggregometer method of Born, C.V.R., J. Physiol., (London), 1962, 162, 67-68, as modified by Mustard, J.F., et al., J. Lab. […] The blood is immediately added to a test tube containing 3.8% sodium citrate to prevent clotting (1 part citrate to 9 parts blood).
Platelet rich plasma (PRP) was separated by centrifugation for 10 minutes at 1000 rpm (140xg) from citrated (3.8%) human blood. All glassware used for preparation of PRP is silicon treated. ADP in final concentration of 0.5 mcg/mL or 0.05 mL of a collagen suspension prepared according to the method described by Evans, G., et al., J. Exp. Med., 1968, 128, 877-894 was used to induce aggregation. The various compounds tested were dissolved in dimethylsulfoxide (DMSO) so that 5 mcl added to the platelet rich plasma would yield the desired test concentration. Vehicle control trials were done and compared with aggregation induced in platelet rich plasma containing various concentrations of the test compounds. Dose response curves were obtained and Inhibitor Concentration (IC50) values calculated.

Regarding `COC(=O)CCCCCCCCn1nc(-c2ccccc2)c(-c2ccccc2)nc1=O` [Example 1, Methyl 3-oxo-5,6-diphenyl-1,2,4-triazine-2(3H)-nonanoate], under setting [1], the 50% inhibitory concentration (IC50) – broadly, the concentration needed to halve the response being measured – was 6.8 µg/mL (≈ 16.2 µM). Same read-out and setting: for `O=C(O)CCCCCCCCn1nc(-c2ccccc2)c(-c2ccccc2)nc1=O` [Example 2, 3-Oxo-5,6-diphenyl-1,2,4-triazine-2(3H)-nonanoic acid] the value was 2.2 µg/mL (≈ 5.43 µM).

For the molecule `COC(=O)CCCCCCCn1nc(-c2ccccc2)c(-c2ccccc2)nc1=O` [Example 3, Methyl 3-Oxo-5,6-diphenyl-1,2,4-triazine-2(3H)-octanoate], the IC50 under setting [1] stood at 4.6 µg/mL (≈ 11.3 µM). For the molecule `O=C(O)CCCCCCCn1nc(-c2ccccc2)c(-c2ccccc2)nc1=O` [Example 4, 3-Oxo-5,6-diphenyl-1,2,4-triazin-2(3H)-octanoic Acid], under setting [1], the IC50 is 3.1 µg/mL (≈ 7.92 µM). Turning to `COC(=O)COc1cccc(CCn2nc(-c3ccccc3)c(-c3ccccc3)nc2=O)c1` [Example 5, Methyl [3-[2-(2,3-dihydro-3-oxo-5,6-diphenyl-1,2,4-triazin-2-yl)ethyl]phenoxy]acetate], the IC50 under setting [2] came to 1 µg/mL (≈ 2.27 µM). Consider `O=C(O)COc1cccc(CCn2nc(-c3ccccc3)c(-c3ccccc3)nc2=O)c1` [Example 6, [3-[2-(2,3-Dihydro-3-oxo-5,6-diphenyl 1,2,4-triazin-2-yl)ethyl]phenoxy]acetic Acid], for which the IC50 under setting [2] is 0.9 µg/mL (≈ 2.11 µM).

(Values after US5021415A, “Triazine carboxylic acids and esters” (Bristol-Myers Squibb Co., priority 1990, dated 1991).)
